Measurements as given in PMC7696741, “Synthesis, Characterization and Assessment of the Antioxidant Activity of Cu(II), Zn(II) and Cd(II) Complexes Derived from Scorpionate Ligands” (Molecules, 2020).
Where two headings read alike, the source gives them in different places.

How the values were obtained:
[1] = Overall evaluation of scavenging (antioxidant) activity, all radical assays; format: biochemical; details: conclusions, all radical assays together
Experimental: (§1) We have carried out both enzymatic and non-enzymatic assays to evaluate the antioxidant properties of all the synthesized scorpionate complexes of Cu(II), Zn(II) and Cd(II) (1–9). All complexes were used at an initial concentration of 2.5 mM diluted in methanol.

[2] = Hydroxyl radicals scavenging activity (L-ascorbic acid-CuSO4 / cytochrome c); format: biochemical; details: L-ascorbic acid-CuSO4, cytochrome c oxidation, pH 7.4, 550 nm; read-out: Oxygen Species Radicals IC50, OH
Experimental: as §1
The scavenging activity of superoxide radicals was determined by the method of Liu and Ng, slightly modified by Kang and Lee. Hydroxyl radicals, generated in the L-ascorbic acid-CuSO4 system, with the reduction of Cu^2+, were analyzed by the oxidation of cytochrome c in 96 microplate wells. The hydroxyl radicals were generated in 200 μL of 10 mM buffer sodium phosphate (pH 7.4), containing […], 12 μM reduced cytochrome c and the samples to be analyzed in different concentrations. The reduction of cytochrome c is produced with the addition of an excess of dithiothreitol to a solution of cytochrome c and followed by Sephadex G-15 chromatography (bed volume, 10 mL) to remove the excess of dithiothreitol.
The compounds or standards in methanol were diluted in series in a 96-well flat-bottomed plate. Stock solution was prepared in phosphate buffer (pH 7.4) containing 100 μM L-ascorbic acid and 100 μM CuSO4. Then, 200 μL of this solution was added to each well and, finally, 10 μL of 120 μM reduced cytochrome c, was added to the plate and was left to incubate for 20 min at room temperature. The change in absorbance, caused by the oxidation of cytochrome c, was measured at 550 nm with a microplate reader (Molecular Devices, Sunnyvale, CA, USA). A thiourea solution (500 μM) was used as a positive control. The scavenging activity of hydroxyl radicals of 500 […] solution of thiourea was taken as 100%. The scavenging activity of hydroxyl radicals has been calculated using the following formula:hydroxyl scavenging radicals (%) = (A − A0)/(AT − A0) × 100 where A is the absorbance of the samples, and AT and A0 is the absorbance of the thiourea and the control, respectively.

[3] = Nitric oxide scavenging activity (sodium nitroprusside / Griess reagent); format: biochemical; details: sodium nitroprusside in PBS, light, 150 min, 577 nm, read-out: Oxygen Species Radicals IC50, NO
Experimental: as §1
In order to determine the scavenging activity of the metal complexes against NO radicals, samples were added to a 96-well plate dish with a flat bottom, and were serially diluted by the same procedure used in the previous assays. In all wells, 100 μL of PBS and 50 μL of sodium nitroprusside dissolved in saline phosphate buffer (PBS), were added. The plate with the samples was incubated in the presence of light at room temperature for 150 min. Finally, an equal volume of 50 μL of Griess reagent was added to each well in order to measure the nitrite content. The plate was incubated at room temperature for 10 min until chromophore formation, and the absorbance was measured at 577 nm in a microplate reader (Molecular Devices, Sunnyvale, CA, USA).

[4] = Hydrogen peroxide radicals scavenging activity; format: biochemical; details: hydrogen peroxide in PBS, 10 min, 230 nm; read-out: Oxygen Species Radicals IC50, OOH
Experimental: as §1
In order to determine the scavenging activity of H2O2 of different complexes or standards in methanol, the compounds were diluted in series in a 96-well flat-bottom plate with the same procedure used in previous assays. Then, 200 μL of peroxide solution was added to the various wells hydrogen in PBS (final volume, 250 μL). After 10 min of incubation, the absorbance was measured at 230 nm with a microplate reader.

[5] = Solubility of the isolated complexes; format: physicochemical; details: for Solubility in chlorinated solvents, alcohols, acetonitrile, dimethylsulfoxide and dimethylformamide: organic solvents as listed
[6] = ABTS radical scavenging activity; format: biochemical; details: ABTS+· in methanol, 10 min dark, room temperature, absorbance 630 nm
Experimental: as §1
Total antioxidant activity was assessed as a measure of radical scavenging activity of the complexes examined against the cationic radical ABTS^+. The method is valid for both hydrophilic and hydrophobic antioxidants. The working solution is produced by the oxidation of an initial solution of ABTS, which is oxidized to ABTS^+· through the reaction with K2S2O8 (2.45 mM) and left in the dark for 12 h. After incubation, the ABTS^+· solution is diluted with methanol to obtain an absorbance of 0.706 ± 0.001 units at 734 nm, which is used as a solution for the analysis of scavenger activity.
Radical scavenging ability is measured with a modified method described initially by Re et al. for the application of a microplate 96 wells. Compounds or standards in methanol were diluted in series in the 96 well plate, as previously described. Trolox was used as a control and was loaded into the plate with the same method and dilution of the samples. The reaction is started with the addition of 200 μL of the ABTS^+· solution (final volume in the wells, 250 μL). The reaction mixture is allowed to stand in the dark for 10 min at room temperature, and the absorbance at 630 nm is measured (Multiskan JX, Thermo Labsystems Oy, Vantaa, Finland). The radical scavenging activity is estimated through the absorbance decrease at 630 nm and can be expressed as the equivalent Trolox.

[7] = DPPH radical scavenging activity; format: biochemical; details: DPPH 100 μM in methanol, 37 °C, absorbance 490 nm
Experimental: as §1
The antioxidant properties of the compounds or control substances have been measured by DPPH, which is able to react with various natural or synthetic antioxidants. A dose response curve was plotted to determine the IC50 values, and the following formula was used to calculate the percentage of radical scavenging:Radical scavenging % = [(A0 − Ac)/A0] × 100 where A0 is the absorbance of the control sample, containing the reagents except the test substance, and Ac is the absorbance of the solution of the various complexes and of the control measured after 30 min of incubation at 37 °C. Any determination is performed in triplicate.
In order to determine the DPPH radical scavenging activity of different scorpionate complexes, the compounds or standards in methanol were diluted in series in the 96 well plate with a flat bottom. The solvent used is usually the same used to dissolve the samples. In various wells containing the compounds and standards, 200 μL of DPPH in methanol solution (100 μM) were added to reach a final volume of 250 μL in all wells. After incubation at 37 °C for 20 min, the absorbance of samples was determined at 490 nm (Multiskan JX, Thermo Labsystems Oy, Vantaa, Finland). Trolox was used as a control and was loaded into the plate with the same method and dilution of the samples.

[8] = Superoxide radicals scavenging activity (PMS-NADH/NBT system); format: biochemical; details: for IC50: PMS-NADH/NBT, Tris-HCl pH 8.0, absorbance 560 nm, read-out: Oxygen Species Radicals IC50, O2^−
Experimental: as §1
The scavenging activity of superoxide radicals was determined by the method of Liu and Ng, slightly modified by Kang and Lee. Superoxide radicals are generated in the phenazine methosulfate-nicotinamide adenine dinucleotide (PMS-NAD) system, responsible for the oxidation of NADH (reduced form of NAD) that was analyzed by reducing the nitro blue tetrazolium chloride NBT in a microplate assay.
In a 96 well plate, samples or control were subjected to a serial dilution with 20 mM Tris-HCl (pH 8.0). Superoxide radicals are generated by adding in 200 μL of 20 mM Tris-HCl (pH 8.0), containing 78 mM NADH, NBT 50 mM to each well and 10 μL are added to the various samples of PMS 10 mM. The reaction between superoxide radicals and NBT develops a blue color, whose intensity decreases proportionally in the presence of the antioxidant compound. The change in absorbance in the various wells is measured at 560 nm with a microplate reader (Molecular Devices, Sunnyvale, CA, USA). L-ascorbate was used as a positive control. The interaction relationship with the superoxide radical (%) was calculated using the following formula:superoxide radical (%) = ((A − A1)/A) × 100 where A is the absorbance of the positive control, and A1 is the absorbance of the test samples.

[9] = Air and moisture stability of the isolated powders; format: physicochemical; details: pure powders
[10] = read-out: SOD activity IC50, cited from earlier work

Compound | Antioxidant (scavenging) activity, overall verdict [1] | IC50 [2] [mM] | IC50 [3] [mM] | IC50 [4] [mM] | Solubility in chlorinated solvents, alcohols, acetonitrile, dimethylsulfoxide and dimethylformamide [5] | Solubility in water [5] | IC50 [6] [mM] | IC50 [7] [mM] | IC50 [8] [mM] | SOD-mimic activity, times less than native bovine Cu-Zn-SOD ([8]; ratio of superoxide IC50 to native bovine Cu-Zn-SOD (IC50 = 0.48 μM)) [times] | Stability to air and moisture [9] | Solubility in most organic solvents [5] | IC50 ([10]; reported scorpionate complex ref 21) [mM] | IC50 ([10]; reported scorpionate complex ref 20) [mM] | IC50 ([10]; native enzyme, literature value ref 47) [mM]
CC(C)(C)c1cc[nH]n1.CC(C)(C)c1cc[nH]n1.CC(C)(C)c1cc[nH]n1.[Cl][Cu][Cl] [Complex 3, [Cu(Hpz^t^Bu)3Cl2]] | moderate antioxidant activity | > 5 | > 5 | > 5 | soluble | insoluble | 0.0972 ± 0.0038 | 0.0766 ± 0.0025 | 0.233 ± 0.004 | 500 |  |  |  |  | 
Cc1ccc2c(cnn2[BH-](n2ncc3cc(C)ccc32)n2ncc3cc(C)ccc32)c1.Cc1ccc2c(cnn2[BH-](n2ncc3cc(C)ccc32)n2ncc3cc(C)ccc32)c1.ClCCl.[Zn+2] [Complex 4, [Zn(Tp^4Bo,5Me)2]⋅CH2Cl2] |  |  |  |  | soluble | insoluble |  |  |  |  | air and moisture stable | good solubility |  |  | 
ClCCl.ClCCl.ClCCl.ClCCl.[Zn+2].c1ccc2c(c1)CCc1cn([BH-](n3cc4c(n3)-c3ccccc3CC4)n3cc4c(n3)-c3ccccc3CC4)nc1-2.c1ccc2c(c1)CCc1cn([BH-](n3cc4c(n3)-c3ccccc3CC4)n3cc4c(n3)-c3ccccc3CC4)nc1-2 [Complex 5, [Zn(Tp^a)2]⋅4CH2Cl2] | moderate antioxidant activity |  |  |  | soluble | insoluble |  |  |  |  | air and moisture stable | good solubility |  |  | 
Cc1ccc2c(cnn2[BH-](n2ncc3cc(C)ccc32)n2ncc3cc(C)ccc32)c1.Cc1ccc2c(cnn2[BH-](n2ncc3cc(C)ccc32)n2ncc3cc(C)ccc32)c1.[Cd+2] [Complex 7, [Cd(Tp^4Bo,5Me)2]] |  | > 5 | > 5 | > 5 | soluble | insoluble | > 5 | > 5 | > 5 |  | air and moisture stable | good solubility |  |  | 
CC(C)(C)c1cc[nH]n1.CC(C)(C)c1ccn([BH2-]n2ccc(C(C)(C)C)n2)n1.[Cl][Cd+] [Complex 9, [Cd(Bp^t^Bu)(Hpz^t^Bu)Cl]] | moderate antioxidant activity | > 5 | > 5 | > 5 | soluble | insoluble | 0.151 ± 0.0042 | > 5 | > 5 |  |  |  |  |  | 
Cc1c(C)c2c(c(C)c1O)CCC(C)(C(=O)O)O2 (stereo not shown) [Trolox, reference compound] |  | > 5 | > 5 | > 5 |  |  | 0.00401 ± 0.0007 | 0.0199 ± 0.0015 | > 5 |  |  |  |  |  | 
O=C(O)c1ccc(P(c2ccccc2)c2ccccc2)cc1.O=C(O)c1ccc(P(c2ccccc2)c2ccccc2)cc1.[Cu+].c1cnn([B-](n2cccn2)(n2cccn2)n2cccn2)c1 [[Cu(PPh2(4-C6H4COOH))2(pzTp)]] |  |  |  |  |  |  |  |  |  |  |  |  | 0.0046 |  | 
Brc1cnn([BH-](n2cc(Br)cn2)n2cc(Br)cn2)c1.O=C(O)c1ccc(P(c2ccccc2)c2ccccc2)cc1.[Cu+] [[Cu(PPh2(4-C6H4COOH))(Tp^4Br)]] |  |  |  |  |  |  |  |  |  |  |  |  |  | 0.0062 | 
[Zn(Tp^t^Bu)Cl] [Complex 6] |  | > 5 | > 5 | > 5 | soluble | insoluble | 0.0579 ± 0.0034 | > 5 | > 5 |  |  |  |  |  | 
native bovine Cu-Zn-SOD: native bovine copper-zinc superoxide dismutase enzyme |  |  |  |  |  |  |  |  |  |  |  |  |  |  | 0.00048
